In patent publication US20210128537A1, “T-TYPE CALCIUM CHANNEL MODULATORS AND METHODS OF USE THEREOF” (Praxis Precision Medicines, inc., priority 2016, published 2021):

Key:
[1] = test system: GAERS nRT T-type Ca2+ channel currents (mixed CaV3.2/CaV3.3 current); experiment: Thalamic slice whole-cell voltage-clamp recordings of nRT T-type Ca2+ channel currents; format: cell-based, rat; set-up: dose or concentration left out as unconfirmed; conditions: and wash off
GAERS nRT neuron = experiment: Thalamic slice current-clamp recordings, burst firing in nRT neurons; format: cell-based, rat; conditions: 1 mM Z944; for voltage response to depolarizing current, low threshold spiking: in 600 nM TTX
[2] = test system: GAERS (genetic rat model of GGE with absence seizures); experiment: Systemic administration in GAERS, EEG spike-and-wave discharges; format: in vivo; conditions: 30 mg/kg intraperitoneal; shift from 8 Hz with ethosuximide 100 mg/kg and vehicle
Protocol: In vivo anti-seizure activity of Z941 and Z944 was assessed in eight female epileptic GAERS (180 to 250 g and 18 to 26 weeks). Rats were implanted with extradural recording electrodes. EEG data were acquired at a sampling rate of 256 Hz unfiltered using Compumedics ProFusion digital EEG acquisition software. After 60-min habituation, rats received intraperitoneal injections of drug, and after a further 15 min, the EEG was acquired for 120 min—the test period. […] Over a 5-week period, each rat received all treatments (crossover design) in a randomized manner with a 48-hour washout period between dosing of test compound, control vehicle, and positive control articles. […] Clinical observations of neurotoxic adverse effects were assessed every 15 min throughout the 120-min test period. These were quantified according to an ordinal scale of 0 to 4: 0, no sedation, normal movement; 1, slight sedation, slow movement but alert when startled; 2, mildly sedate, reduced struggle to restraint; 3, sedate, not moving in cage, but does respond to provocation; 4, very sedate, catatonic and unable to stand when provoked. The eight scores (taken for one experiment per rat) were then averaged, and group means were calculated for each treatment. Animals were also monitored daily for general health throughout the study period (that is, weight gain and fur condition). […]

fully kindled rats = experiment: Amygdala kindling model, anti-seizure testing in fully kindled rats; format: in vivo, rat
Protocol: Animals were implanted with EEG recording electrodes and with a stimulating bipolar electrode in the left basolateral amygdaloid nucleus using the coordinates AP±3.0 mm, ML±5.9 mm, DV±6.0 mm. The after discharge threshold (ADT) for each animal was determined by administering a stimulation (frequency=60.1 Hz; duration=1000 μs) at one minute intervals until a seizure was clicited. The amplitude of the stimulation was started at 0.02 mA with increments of 0.02 mA; the stimulations were stopped when the animal experienced a seizure of ≥6 second duration, or if the amplitude of 0.40 mA was reached without the occurrence of a seizure. […] Kindling was performed twice a day for five days per week with an endpoint of 30 stimulations or until the animal presented five class V seizures (referred to as fully kindled). The seizure severity was classified from 0 (less severe) to V (most severe) according to the Racine Scale (Racine, 1972b). Sham kindled animals were handled the same way as the kindled animals, although no electrical stimulation was applied. An animal is classified as fully kindled once it has experienced 5 class V seizures.
Drug testing was performed twice a week until all animals had received each of the seven treatments, Z944 (5 mg/kg, 10 mg/kg, 30 mg/kg and 100 mg/kg), vehicle (10% DMSO/90% Na^+-CMC or CBZ vehicle 20% DMSO/40% propylene glycol/40% saline), ETX (100 mg/kg) or CBZ (30 mg/kg). Prior to drug testing each day, animals were subjected to a maximum of three pre-drug stimulations 30 minutes apart. The animals qualified for testing on that particular day if a class IV or V seizure was elicited in at least 2 out of 3 pre-drug stimulations. Stimulations consisted of a 1 second train of 1 ms biphasic square wave pulses at a frequency of 60 Hz with current amplitude based on each animal ADT that elicited a seizure. Thirty minutes after the last pre-drug stimulation, the animals received an IP injection of one of the seven treatments in a randomized manner at a dose volume of 5 ml/kg. Six post-drug stimulations were administered to each animal, the first stimulation was given 15 minutes post drug injection (to allow brain penetration of the drugs) and the following five stimulations were delivered in 30 minutes intervals thereafter with the seizure class elicited being recorded after each post-drug stimulation. The duration of the primary and total seizures, if any, were recorded. An investigator blinded to the drug treatment analyzed all EEG recordings. Primary after discharge is the duration of the seizure elicited from the kindling stimulation. Total after discharge is the total seizure duration including any secondary seizures that occur after the primary after discharge. Primary after discharge duration and total seizure duration were recorded and averaged for the 6 post-drug stimulations.
Animal weight and behaviour when handled were monitored for the duration of the experimental period. Additionally, animals were assessed by observation for any adverse effects of drugs on grooming, fur appearance, gait, and excretion.

post-SE rats = experiment: Sucrose preference test in post-SE rats; format: in vivo, rat; conditions: Z944 60 mg/kg/day for 4 weeks, p<0.05
Protocol: All behavioural tests were performed in a light-controlled (˜110 lux), closed, quiet and clean room in the. Behavioural testing was performed in a blinded manner to the treatment groups. All of the behavioural tests were video recorded for future analysis. OF, EPM and MWM sessions were filmed using a digital camera mounted above the centre of the arena, which was connected to a computer for the recording and objective analysis of digitized behavioural tests (EthoVision 3.0.15, Noldus). The first behavioural test was performed one week after the last EEG recording. The different behavioural tests/session were performed 24 hours apart from each other. All tests were scored by an experienced observer who was blind to the experimental conditions of the animals.
The SPT was used to assess depressive-like behaviour. The animals remained to stay in their same home cage. One hour before the start of the test, the animals were given up to 0.5 ml of the testing 2% sucrose to ensure that the animals would drink the sucrose solution. The animals were presented with two bottles, one filled with water and the other one filled with 2% sucrose in water for 24 hours. On both tests, bottle position was randomised to avoid position preference. Total fluid intake and percentage preference for sucrose were recorded.

CC(C)(C)NC(=O)CN1CCC(CNC(=O)c2cc(F)cc(Cl)c2)CC1 [Z944]
reversibility of inhibition of GAERS nRT T-type Ca2+ channel currents [1]: nonreversible inhibition | voltage response to depolarizing current, burst firing (GAERS nRT neuron; +80 pA (threshold for burst firing in control)): subthreshold for firing | voltage response to depolarizing current, low threshold spiking (GAERS nRT neuron; +100 pA): subthreshold for low-threshold spiking | voltage response to depolarizing current, burst firing (GAERS nRT neuron; +120 pA (suprathreshold for burst firing in control)): threshold for tonic firing | voltage response to depolarizing current, low threshold spiking (GAERS nRT neuron; +190 pA (suprathreshold in control)): still subthreshold | peak cycle frequency power during seizure activity (FFT) [2]: 6.5 Hz | seizure class elicited (Racine scale) (fully kindled rats; IP, Z944 5, 10, 30, 100 mg/kg, CBZ 30 mg/kg, compared to vehicle): does not suppress seizures | primary after discharge (fully kindled rats; IP, all four doses of Z944, ETX 100 mg/kg, CBZ 30 mg/kg, compared to vehicle (p>0.5)): did not affect the primary after discharge | adverse effects (sedation scale 0-4) compared to vehicle (fully kindled rats; Z944 100 mg/kg, CBZ 30 mg/kg IP, p<0.01): significantly higher adverse effects | adverse effects (sedation scale 0-4), dose dependence (fully kindled rats; Z944 5 to 100 mg/kg IP): dose dependent | sucrose preference (post-SE rats): vehicle had a reduced sucrose preference compared to both sham groups and post-SE+Z944 group
